Measured values: US20230049952A1, “METHODS AND COMPOUNDS FOR RESTORING MUTANT P53 FUNCTION” (PMV Pharmaceuticals, Inc., priority 2020, published 2023)

Tested on: p53 signaling pathway in MT373 tumors
Assay: MT373 syngeneic sarcoma model: mouse p53 signaling pathway profiling panel
Type: in vivo

CCn1c(C#CCNc2ccccc2)cc2cc(CNC3CCN(C)CC3)ccc21 [Compound 1, 1-Anilino-3-{1-ethyl-5-[(1-methyl-4-piperidylamino)methyl]-1H-indol-2-yl}-2-propyne]
Casp2 fold increase or percent reduction vs vehicle control (75 mg/kg BIDx1, 24 h): 16.13 fold or %
Ccnb1 fold increase or percent reduction vs vehicle control (75 mg/kg BIDx1, 24 h): 65.51 fold or %
Ccne1 fold increase or percent reduction vs vehicle control (75 mg/kg BIDx1, 24 h): 29.87 fold or %
Ccng1 fold increase or percent reduction vs vehicle control (75 mg/kg BIDx1, 24 h): 4.63 fold or %
Ccnh fold increase or percent reduction vs vehicle control (75 mg/kg BIDx1, 24 h): 3.31 fold or %
Cdc25a fold increase or percent reduction vs vehicle control (75 mg/kg BIDx1, 24 h): 34.15 fold or %
Cdk1 fold increase or percent reduction vs vehicle control (75 mg/kg BIDx1, 24 h): 59.92 fold or %
Cdk4 fold increase or percent reduction vs vehicle control (75 mg/kg BIDx1, 24 h): 40.50 fold or %
Cdkn1a fold increase or percent reduction vs vehicle control (75 mg/kg BIDx1, 24 h): 5.16 fold or %
Cdkn2a fold increase or percent reduction vs vehicle control (75 mg/kg BIDx1, 24 h): 16.83 fold or %
Chek1 fold increase or percent reduction vs vehicle control (75 mg/kg BIDx1, 24 h): 52.36 fold or %
Cradd fold increase or percent reduction vs vehicle control (75 mg/kg BIDx1, 24 h): 5.90 fold or %
Cul9 fold increase or percent reduction vs vehicle control (75 mg/kg BIDx1, 24 h): 1.58 fold or %
Dapk1 fold increase or percent reduction vs vehicle control (75 mg/kg BIDx1, 24 h): 1.19 fold or %
Dnmt1 fold increase or percent reduction vs vehicle control (75 mg/kg BIDx1, 24 h): 17.60 fold or %
E2f1 fold increase or percent reduction vs vehicle control (75 mg/kg BIDx1, 24 h): 10.67 fold or %
E2f3 fold increase or percent reduction vs vehicle control (75 mg/kg BIDx1, 24 h): 27.77 fold or %
Egfr fold increase or percent reduction vs vehicle control (75 mg/kg BIDx1, 24 h): 28.18 fold or %
Egr1 fold increase or percent reduction vs vehicle control (75 mg/kg BIDx1, 24 h): 64.73 fold or %
Ep300 fold increase or percent reduction vs vehicle control (75 mg/kg BIDx1, 24 h): 3.09 fold or %
Ercc1 fold increase or percent reduction vs vehicle control (75 mg/kg BIDx1, 24 h): 18.66 fold or %
Esr1 fold increase or percent reduction vs vehicle control (75 mg/kg BIDx1, 24 h): 1.26 fold or %
Fadd fold increase or percent reduction vs vehicle control (75 mg/kg BIDx1, 24 h): 5.60 fold or %
Fas fold increase or percent reduction vs vehicle control (75 mg/kg BIDx1, 24 h): 1.45 fold or %
Fasl fold increase or percent reduction vs vehicle control (75 mg/kg BIDx1, 24 h): 10.36 fold or %
Foxo3 fold increase or percent reduction vs vehicle control (75 mg/kg BIDx1, 24 h): 3.58 fold or %
Gadd45a fold increase or percent reduction vs vehicle control (75 mg/kg BIDx1, 24 h): 19.41 fold or %
Hif1a fold increase or percent reduction vs vehicle control (75 mg/kg BIDx1, 24 h): 13.43 fold or %
Il6 fold increase or percent reduction vs vehicle control (75 mg/kg BIDx1, 24 h): 70.78 fold or %
Jun fold increase or percent reduction vs vehicle control (75 mg/kg BIDx1, 24 h): 38.98 fold or %
Kras fold increase or percent reduction vs vehicle control (75 mg/kg BIDx1, 24 h): 13.87 fold or %
Lig4 fold increase or percent reduction vs vehicle control (75 mg/kg BIDx1, 24 h): 1.17. fold or %
Mdm2 fold increase or percent reduction vs vehicle control (75 mg/kg BIDx1, 24 h): 2.76 fold or %
Mdm4 fold increase or percent reduction vs vehicle control (75 mg/kg BIDx1, 24 h): 1.07 fold or %
Mel1 fold increase or percent reduction vs vehicle control (75 mg/kg BIDx1, 24 h): 15.14 fold or %
Mlh1 fold increase or percent reduction vs vehicle control (75 mg/kg BIDx1, 24 h): 9.12 fold or %
Msh2 fold increase or percent reduction vs vehicle control (75 mg/kg BIDx1, 24 h): 29.40 fold or %
Myod1 fold increase or percent reduction vs vehicle control (75 mg/kg BIDx1, 24 h): 3.54 fold or %
Nf1 fold increase or percent reduction vs vehicle control (75 mg/kg BIDx1, 24 h): 16.46 fold or %
Nfkb1 fold increase or percent reduction vs vehicle control (75 mg/kg BIDx1, 24 h): 15.21 fold or %
Pcna fold increase or percent reduction vs vehicle control (75 mg/kg BIDx1, 24 h): 43.21 fold or %
Pmaip1 fold increase or percent reduction vs vehicle control (75 mg/kg BIDx1, 24 h): 3.81 fold or %
Ppm1d fold increase or percent reduction vs vehicle control (75 mg/kg BIDx1, 24 h): 1.26 fold or %
Prc1 fold increase or percent reduction vs vehicle control (75 mg/kg BIDx1, 24 h): 26.03 fold or %
Prkca fold increase or percent reduction vs vehicle control (75 mg/kg BIDx1, 24 h): 16.45 fold or %
Pten fold increase or percent reduction vs vehicle control (75 mg/kg BIDx1, 24 h): 1.18 fold or %
Pttg1 fold increase or percent reduction vs vehicle control (75 mg/kg BIDx1, 24 h): 1.07 fold or %
Rb1 fold increase or percent reduction vs vehicle control (75 mg/kg BIDx1, 24 h): 1.14 fold or %
Rela fold increase or percent reduction vs vehicle control (75 mg/kg BIDx1, 24 h): 32.18 fold or %
Rprm fold increase or percent reduction vs vehicle control (75 mg/kg BIDx1, 24 h): 1.77 fold or %
Serpinb5 fold increase or percent reduction vs vehicle control (75 mg/kg BIDx1, 24 h): 1.20 fold or %
Sesn2 fold increase or percent reduction vs vehicle control (75 mg/kg BIDx1, 24 h): 2.05 fold or %
Sfn fold increase or percent reduction vs vehicle control (75 mg/kg BIDx1, 24 h): 15.25 fold or %
Sirt1 fold increase or percent reduction vs vehicle control (75 mg/kg BIDx1, 24 h): 6.13 fold or %
Stat1 fold increase or percent reduction vs vehicle control (75 mg/kg BIDx1, 24 h): 1.08 fold or %
Tnf fold increase or percent reduction vs vehicle control (75 mg/kg BIDx1, 24 h): 24.76 fold or %
Traf1 fold increase or percent reduction vs vehicle control (75 mg/kg BIDx1, 24 h): 1.06 fold or %
Trp53bp2 fold increase or percent reduction vs vehicle control (75 mg/kg BIDx1, 24 h): 5.61 fold or %
Trp53 fold increase or percent reduction vs vehicle control (75 mg/kg BIDx1, 24 h): 18.16 fold or %
Apex1 fold increase or percent reduction vs vehicle control (75 mg/kg BIDx1, 48 h): 21.30 fold or %
Atm fold increase or percent reduction vs vehicle control (75 mg/kg BIDx1, 48 h): 18.31 fold or %
Atr fold increase or percent reduction vs vehicle control (75 mg/kg BIDx1, 48 h): 14.07 fold or %
Bag1 fold increase or percent reduction vs vehicle control (75 mg/kg BIDx1, 48 h): 42.29 fold or %
Bax fold increase or percent reduction vs vehicle control (75 mg/kg BIDx1, 48 h): 23.39 fold or %
Bbc3 fold increase or percent reduction vs vehicle control (75 mg/kg BIDx1, 48 h): 1.32 fold or %
Bid fold increase or percent reduction vs vehicle control (75 mg/kg BIDx1, 48 h): 1.21 fold or %
Birc5 fold increase or percent reduction vs vehicle control (75 mg/kg BIDx1, 48 h): 50.48 fold or %
Brca1 fold increase or percent reduction vs vehicle control (75 mg/kg BIDx1, 48 h): 31.46 fold or %
Brca2 fold increase or percent reduction vs vehicle control (75 mg/kg BIDx1, 48 h): 25.33 fold or %
Btg2 fold increase or percent reduction vs vehicle control (75 mg/kg BIDx1, 48 h): 11.23 fold or %
Casp2 fold increase or percent reduction vs vehicle control (75 mg/kg BIDx1, 48 h): 9.89 fold or %
Ccnb1 fold increase or percent reduction vs vehicle control (75 mg/kg BIDx1, 48 h): 59.73 fold or %
Ccne1 fold increase or percent reduction vs vehicle control (75 mg/kg BIDx1, 48 h): 5.97 fold or %
Ccng1 fold increase or percent reduction vs vehicle control (75 mg/kg BIDx1, 48 h): 9.36 fold or %
Ccnh fold increase or percent reduction vs vehicle control (75 mg/kg BIDx1, 48 h): 12.98 fold or %
Cdc25a fold increase or percent reduction vs vehicle control (75 mg/kg BIDx1, 48 h): 16.12 fold or %
Cdk1 fold increase or percent reduction vs vehicle control (75 mg/kg BIDx1, 48 h): 55.02 fold or %
Cdk4 fold increase or percent reduction vs vehicle control (75 mg/kg BIDx1, 48 h): 48.77 fold or %
Cdkn1a fold increase or percent reduction vs vehicle control (75 mg/kg BIDx1, 48 h): 1.03 fold or %
Cdkn2a fold increase or percent reduction vs vehicle control (75 mg/kg BIDx1, 48 h): 23.77 fold or %
Chek1 fold increase or percent reduction vs vehicle control (75 mg/kg BIDx1, 48 h): 37.45 fold or %
Cradd fold increase or percent reduction vs vehicle control (75 mg/kg BIDx1, 48 h): 13.67 fold or %
Cul9 fold increase or percent reduction vs vehicle control (75 mg/kg BIDx1, 48 h): 2.20 fold or %
Dapk1 fold increase or percent reduction vs vehicle control (75 mg/kg BIDx1, 48 h): 1.46 fold or %
